Measured values taken from PubChem BioAssay AID248 (DTP/NCI, 2004).
“And” between values parts separate entries of the source, which are not always exact repeats. Identical values can stand only once. Toxic doses and inconclusive results are not listed. Cut-off read from the data, not from the text of the source: active = T/C of 150% or more; inactive = T/C below 125%.

Test system: L1210 leukemia ip in BDF1 mice, survival T/C
Assay: NCI In Vivo Anticancer Drug Screen. Data for tumor model L1210 Leukemia (intraperitoneal) in B6D2F1 (BDF1) mice
Details: endpoint: mean survival time, higher = longer survival
How it was run: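 Antitumor effect is assessed in tumor-bearing animals. Survival in the compound arm is compared with a vehicle-dosed control arm and expressed as their quotient.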

[1] = dose: 100.0 mg/kg/injection, schedule: Q01DX009 (ip), vehicle: saline with Tween-80
[2] = dose: 100.0 mg/kg/injection, schedule: Q04DX002 (ip), vehicle: saline with Tween-80
[3] = dose: 200.0 mg/kg/injection, schedule: Q01DX009 (ip), vehicle: saline with Tween-80
[4] = dose: 200.0 mg/kg/injection, schedule: Q04DX002 (ip), vehicle: saline with Tween-80
[5] = dose: 400.0 mg/kg/injection, schedule: Q01DX009 (ip), vehicle: saline with Tween-80
[6] = dose: 400.0 mg/kg/injection, schedule: Q04DX002 (ip), vehicle: saline with Tween-80
[7] = dose: 100.0 mg/kg/injection, schedule: Q01DX009 (ip), vehicle: Klucel (hydroxypropylcellulose) (HPC)
[8] = dose: 200.0 mg/kg/injection, schedule: Q01DX009 (ip), vehicle: Klucel (hydroxypropylcellulose) (HPC)
[9] = dose: 400.0 mg/kg/injection, schedule: Q01DX009 (ip), vehicle: Klucel (hydroxypropylcellulose) (HPC)
[10] = dose: 100.0 mg/kg/injection, schedule: Q04DX003 (ip), vehicle: saline with Tween-80
[11] = dose: 200.0 mg/kg/injection, schedule: Q04DX003 (ip), vehicle: saline with Tween-80
[12] = dose: 400.0 mg/kg/injection, schedule: Q04DX003 (ip), vehicle: saline with Tween-80
[13] = dose: 50.0 mg/kg/injection, schedule: Q01DX001 (ip), vehicle: carboxymethylcellulose (CMC)
[14] = dose: 100.0 mg/kg/injection, schedule: Q01DX001 (ip), vehicle: carboxymethylcellulose (CMC)
[15] = dose: 200.0 mg/kg/injection, schedule: Q01DX001 (ip), vehicle: carboxymethylcellulose (CMC)
[16] = dose: 100.0 mg/kg/injection, schedule: Q04DX003 (ip), vehicle: Klucel (hydroxypropylcellulose) (HPC)
[17] = dose: 200.0 mg/kg/injection, schedule: Q04DX003 (ip), vehicle: Klucel (hydroxypropylcellulose) (HPC)
[18] = dose: 400.0 mg/kg/injection, schedule: Q04DX003 (ip), vehicle: Klucel (hydroxypropylcellulose) (HPC)
[19] = dose: 75.0 mg/kg/injection, schedule: Q01DX001 (ip), vehicle: saline
[20] = dose: 150.0 mg/kg/injection, schedule: Q01DX001 (ip), vehicle: saline

Measured: T/C

COc1ccc(/C=C/C(=O)O)cc1
inactive: [1] 100 % of control | [2] 88 % of control | [3] 107 % of control | [4] 98 % of control | [5] 97 % of control | [6] 88 % of control

CCc1ccc(NS(=O)(=O)c2ccccc2[N+](=O)[O-])cc1
inactive: [7] 105 % of control | [8] 105 % of control | [9] 113 % of control

O=C1NCCCC1C(=O)Nc1cccc2c1NCCC2 (stereo not given)
inactive: dose: 100.0 mg/kg/injection, schedule: Q01DX001 (ip), vehicle: Klucel (hydroxypropylcellulose) (HPC) 105 % of control | dose: 200.0 mg/kg/injection, schedule: Q01DX001 (ip), vehicle: Klucel (hydroxypropylcellulose) (HPC) 94 % of control | dose: 400.0 mg/kg/injection, schedule: Q01DX001 (ip), vehicle: Klucel (hydroxypropylcellulose) (HPC) 105 % of control

CCNC(=O)Oc1cccc(NC(=O)OC)c1
inactive: [10] 104 % of control | [11] 93 % of control | [12] 95 % of control

O=C(O)/C=C\C(=O)Nc1ccc(F)cc1
inactive: [10] 98 % of control | [11] 101 % of control | [12] 101 % of control

CCOC(=O)/C(C(=O)c1ccccc1)=C(\OC(=O)c1ccccc1)c1ccccc1
inactive: [13] 96 % of control | [14] 102 % of control | [15] 91 % of control

CCOC(=O)C(C)(C)C(C)=O
inactive: [7] 99 % of control | [16] 103 % of control | [8] 99 % of control | [17] 103 % of control | [9] 95 % of control | [18] 97 % of control

Nc1nc(N)c2cc(CNc3ccc(C(=O)NC(CCCC(=O)O)C(=O)O)cc3)ccc2n1 (stereo not given)
inactive: dose: 0.25 mg/kg/injection, schedule: Q01DX009 (ip), vehicle: saline 124 % of control | dose: 0.5 mg/kg/injection, schedule: Q01DX009 (ip), vehicle: saline 117 % of control | dose: 2.0 mg/kg/injection, schedule: Q01DX009 (ip), vehicle: saline 101 % of control | dose: 16.0 mg/kg/injection, schedule: Q04DX003 (ip), vehicle: saline 92 % of control

N=C(N)c1ccc(Oc2ccc(-c3cc4ccc(C(=N)N)cc4[nH]3)cc2)cc1
inactive: dose: 1.56 mg/kg/injection, schedule: Q01DX009 (ip), vehicle: saline with Tween-80 90 % of control | dose: 3.12 mg/kg/injection, schedule: Q01DX009 (ip), vehicle: saline with Tween-80 106 % of control | dose: 6.25 mg/kg/injection, schedule: Q04DX003 (ip), vehicle: saline 100 % of control (2×) and 112 % of control | dose: 12.5 mg/kg/injection, schedule: Q01DX009 (ip), vehicle: saline with Tween-80 119 % of control | dose: 12.5 mg/kg/injection, schedule: Q04DX003 (ip), vehicle: saline 112 % of control and 120 % of control and 122 % of control | dose: 25.0 mg/kg/injection, schedule: Q04DX003 (ip), vehicle: saline 112 % of control

O=C(C[n+]1ccc2ccccc2c1)c1ccccc1
inactive: dose: 12.5 mg/kg/injection, schedule: Q01DX009 (ip), vehicle: saline 98 % of control | dose: 25.0 mg/kg/injection, schedule: Q01DX009 (ip), vehicle: saline 104 % of control | dose: 50.0 mg/kg/injection, schedule: Q01DX009 (ip), vehicle: saline 101 % of control | dose: 50.0 mg/kg/injection, schedule: Q04DX003 (ip), vehicle: saline 97 % of control

CCC(CO)Nc1nc2ccc([N+](=O)[O-])cc2c2ccccc12 (stereo not given)
inactive: [7] 103 % of control | [16] 94 % of control | [8] 111 % of control | [17] 102 % of control | [18] 102 % of control

CNc1ccc(C(=O)O)cc1OC
inactive: [1] 95 % of control | [3] 91 % of control | [5] 88 % of control

CCSc1n[nH]c(=O)nc1NN
inactive: dose: 10.0 mg/kg/injection, schedule: Q01DX001 (ip), vehicle: acetone 102 % of control | dose: 20.0 mg/kg/injection, schedule: Q01DX001 (ip), vehicle: acetone 96 % of control | dose: 40.0 mg/kg/injection, schedule: Q01DX001 (ip), vehicle: acetone 96 % of control

CCCCCCCCCCCCCCOS(=O)(=O)O
inactive: dose: 37.5 mg/kg/injection, schedule: Q04DX003 (ip), vehicle: saline 100 % of control | [19] 95 % of control | dose: 75.0 mg/kg/injection, schedule: Q04DX003 (ip), vehicle: saline 94 % of control | [20] 92 % of control | dose: 150.0 mg/kg/injection, schedule: Q04DX003 (ip), vehicle: saline 92 % of control

Nc1cc2c(cc1N)-c1ccccc1/C2=N\O
inactive: dose: 75.0 mg/kg/injection, schedule: Q01DX001 (ip), vehicle: carboxymethylcellulose (CMC) 102 % of control | dose: 150.0 mg/kg/injection, schedule: Q01DX001 (ip), vehicle: carboxymethylcellulose (CMC) 91 % of control

COC(=O)C1(O)CC(=O)CCC1c1ccccc1 (stereo not given)
inactive: [16] 105 % of control | [17] 94 % of control | [18] 95 % of control

CC(O)(C(=O)c1ccccc1)c1ccc(Cl)cc1 (stereo not given)
inactive: [16] 95 % of control | [17] 98 % of control | [18] 101 % of control

CCOC(=O)NC1CC2CCC1C2 (stereo not given)
inactive: [13] 110 % of control | [14] 103 % of control | [15] 103 % of control | dose: 400.0 mg/kg/injection, schedule: Q01DX001 (ip), vehicle: carboxymethylcellulose (CMC) 103 % of control

[I][Sn]([c]1ccccc1)([c]1ccccc1)[c]1ccccc1
inactive: dose: 0.25 mg/kg/injection, schedule: Q01DX009 (ip), vehicle: Klucel (hydroxypropylcellulose) (HPC) 93 % of control | dose: 0.5 mg/kg/injection, schedule: Q01DX009 (ip), vehicle: Klucel (hydroxypropylcellulose) (HPC) 101 % of control | dose: 1.0 mg/kg/injection, schedule: Q01DX009 (ip), vehicle: Klucel (hydroxypropylcellulose) (HPC) 97 % of control

Cc1c(Cl)cccc1NC(=O)Nc1ccc(S(N)(=O)=O)cc1
inactive: [1] 93 % of control and 97 % of control | [2] 101 % of control and 110 % of control | [10] 100 % of control | [3] 104 % of control and 105 % of control | [4] 101 % of control and 104 % of control | [11] 95 % of control | [5] 93 % of control and 101 % of control | [6] 93 % of control and 95 % of control | [12] 92 % of control

CCC(=O)C1(c2cccc(O)c2)CCN(C)CC1
inactive: [19] 94 % of control | [20] 97 % of control

Cc1ccc(C(C)(N=[N+]=[N-])c2ccccc2)cc1C (stereo not given)
inactive: dose: 100.0 mg/kg/injection, schedule: Q01DX001 (ip), vehicle: saline 93 % of control | dose: 200.0 mg/kg/injection, schedule: Q01DX001 (ip), vehicle: saline 96 % of control | dose: 400.0 mg/kg/injection, schedule: Q01DX001 (ip), vehicle: saline 109 % of control

NCCc1cnc(N=Nc2ccc(S(N)(=O)=O)cc2)[nH]1
inactive: [10] 93 % of control | [11] 96 % of control | [12] 86 % of control

O=C(O)CSCc1nc2ccccc2[nH]1
inactive: [1] 92 % of control | [10] 101 % of control | [3] 100 % of control | [11] 92 % of control | [5] 96 % of control | [12] 95 % of control
